# How the values were obtained:
# [1] = normal primates; cited from earlier work
# [2] = Heart failure patients: serum thyroid function tests; type: in vivo, human; details: for Thyrotropin: baseline 2.47 ± 0.6; for FreeT4: baseline 1.19 ± 0.1; for ReverseT3: baseline 197 ± 27
# Protocol: (§1) All patients were hospitalized before initiating treatment and a right heart catheterization, radionuclide ejection fraction and echocardiogram were performed. Serum samples were drawn for measurement of thyrotropin, total T4, free T4, and reverse T3.
# (§2) DITPA cross-reacted with antibodies for detection of T3, which consequently was not measured. Renal and hepatic function tests also were performed. Patients were randomly assigned in double-blind fashion to receive either DITPA at a dosage of 1.875 mg/kg daily or placebo in two or three divided doses. For the first four days of drug administration patients were monitored on a telemetry unit. Thereafter, weekly electrocardiograms were performed and patients were examined for changes in thyroid or cardiac status or evidence of drug toxicity.
# (§3) At the end of two weeks an echocardiogram was obtained. If there was no clinical evidence of progression of heart failure or development of an arrhythmia the dose of DITPA was increased to 3.75 mg/kg daily. After an additional two weeks of treatment with the higher dosage of the drug patients were readmitted to the hospital and the tests performed in the initial evaluation were repeated.
# Right heart catheterization was performed after the patient had been fasted overnight; no premedication was given. Pulmonary artery, pulmonary capillary wedge and right heart pressures were measured with a 7 Fr Swan-Ganz catheter introduced into the right femoral vein. Blood pressures were recorded with an automated arm cuff system. After an initial stabilization period of 20 to 30 minutes, the resting hemodynamic measurements were obtained. Thermodilution cardiac output measurements were averaged from five recordings after discarding the highest and lowest values. All blood tests were performed in the Clinical Pathology Laboratory at the Southern Arizona Veterans Administration Health Care System.
# [3] = post-infarction models, alone or with an angiotensin I-converting enzyme inhibitor; cited from earlier work
# [4] = post-infarction rats, border zone around the infarct; cited from earlier work
# [5] = Cardiac performance, chronotropic and metabolic effect compared with L-thyroxine (background); type: in vivo
# From the text: Because of potential adverse effects of thyroid hormone, such as metabolic stimulation and tachycardia, what is required are thyroid hormone analogs with fewer undesirable side effects. […] Like thyroid hormone, DITPA binds to nuclear T3 receptors of the c-erbA proto-oncogene family.
# [6] = Double-blind DITPA versus placebo study in patients with congestive heart failure: clinical effects and tolerability; type: in vivo, human; details: for Weight: baseline 98.7 ± 6.6, mean ± SE; for NY Heart Association functional class: baseline 2.5 ± 0.2; for Diastolic Blood Pressure: baseline 75.8 ± 4.2; for Heart Rate: baseline 81.3 ± 4.4; for Systolic Blood Pressure: baseline 122.8 ± 4.9
# Protocol: (§4) In clinical trials discussed below wherein DITPA was orally administered to volunteers and patients, the DITPA was mixed under the supervision of a registered pharmacist with lactose and packed into gelatin capsules containing 50 mg of the active ingredient. Identical capsules were packed with lactose to serve as placebo medication.
# Patients were eligible for enrollment in these clinical studies if they had symptoms of heart failure and an ejection fraction of less than 35%. Patients were required to be in sinus rhythm. Treatment with digitalis, angiotensin converting enzyme inhibitors, and diuretics were allowed, but β-adrenergic blocking agents were not permitted.
# Three patients in the placebo group and one patient receiving DITPA were taking an HMG-CoA reductase inhibitor. Patients were excluded from the study if they were receiving amiodarone, had unstable angina, myocardial infarction within 6 months, significant aortic stenosis, hepatic or renal insufficiency, anemia (hematocrit<30%), pre-existent thyroid disease, sensitivity to iodine, active cancer or any other life-threatening disease.
# as §1, §2, §3
# M-mode, two-dimensional, and Doppler echocardiograms were obtained with an ultrasonographic system equipped with a […] transducer (GE VingMed, Milwaukee, Wis.) according to the recommendation of the American Society of Echocardiography. Ejection fraction was measured by gated radionuclide myocardial imaging.
# Twenty-two patients underwent the initial right heart catheterization and were randomized to receive the subject drug or placebo. Nineteen patients completed the study (mean age 61.6, range 47 to 76). Patient functional classes, according to the New York Heart Association classification were II (n=12), III (n=7). One patient had dilated cardiomyopathy. The remaining patients had coronary artery disease, which was considered to be the most likely etiology of congestive heart failure. There was one death in a patient receiving placebo. One patient in the DITPA group was withdrawn because of abdominal pain and subsequently found to have cholelithiasis.
# [7] = Dose-ranging study of DITPA in normal volunteers: clinical variables and tolerability; type: in vivo, human; details: for Weight: normal volunteers n=7, oral, baseline 84.2 ± 2.6; for Weight / Heart Rate / Diastolic Blood Pressure / Systolic Blood Pressure: mean ± SE; for Heart Rate: baseline 55.4 ± 2.9; for Diastolic Blood Pressure: baseline 77.1 ± 3.5; for Systolic Blood Pressure: baseline 121.3 ± 4.4
# Protocol: as §4
# A dose-ranging study was performed with seven (7) normal volunteers. Study participants comprised men between the ages of 18 and 65 years of age. Before participating in the study, a complete physical examination, electrocardiogram, and echocardiogram were obtained. A complete blood count (CBC), blood chemistries (including liver enzymes and lipids profile), and thyroid function studies (total T3, total T4, free T4, rT3, and thyrotropin) were measured.
# On day 1, these normal volunteers were started on 1.875 mg/kg in two divided doses per day. This treatment regimen was continued for two weeks. At the end of the second week, the initial laboratory studies were repeated. The dose was then doubled to 3.75 mg/kg and the volunteers were treated for two additional weeks. At the end of this time physical examination and all laboratory variables again were measured.
# Volunteer data were analyzed using Student's paired t-test. Baseline data in DITPA and placebo groups were compared by Student's unpaired t-test. Comparison of placebo and drug treated groups was made by repeated measures ANOVA (SPSS Version 9.5, SPSS Chicago, 11). If P values for drug-time interactions were significant a priori contrasts were performed of the drug-time interaction for two weeks versus baseline. When data were available only at baseline and four week, comparisons were made by difference scores. Baseline values for each participant were subtracted from values after four weeks of treatment and the differences between DITPA and placebo treatments then were compared. P values by two-tailed testing less than 0.05 were considered to be significant.
# As noted above, seven normal volunteers received DITPA at two dosage levels for two and four weeks.
# [8] = system: single myocytes from infarcted rabbit hearts; details: cited from earlier work
# [9] = serum, after 2 weeks (1.875 mg/kg daily)
# [10] = serum, after 4 weeks (3.75 mg/kg daily)
# [11] = heart failure patients, after 2 weeks (1.875 mg/kg daily)
# [12] = heart failure patients, after 4 weeks (3.75 mg/kg daily)
# [13] = normal volunteers, after 2 weeks (1.875 mg/kg/day)
# [14] = normal volunteers, after 4 weeks (3.75 mg/kg/day)
smiles,measurement,setting,value
"O=C(O)CCc1cc(I)c(Oc2ccc(O)cc2)c(I)c1 [DITPA, 3,5-Diiodothyropropionic acid]",in vivo force-frequency and relaxation-frequency relationships,[1],enhances the in vivo force-frequency and relaxation-frequency relationships
same,Thyrotropin,"[2]; heart failure patients n=9, serum, after 2 weeks (1.875 mg/kg daily)",0.04 ± 01^++ mU/L
same,FreeT4,[2]; [9],1.17 ± 0.1^ ng/dL
same,ReverseT3,[2]; [9],477 ± 83^++ ng/dL
same,FreeT4,[2]; [10],1.17 ± 0.15 ng/dL
same,Thyrotropin,[2]; [10],0.018 ± 0.0004 mU/L
same,ReverseT3,[2]; [10],559 ± 108 ng/dL
same,left ventricular (LV) performance,[3],improve left ventricular (LV) performance
same,capillary growth,[4],increase in capillary growth
same,chronotropic effect relative to L-thyroxine,[5]; at increased cardiac performance,approximately half of the chronotropic effect
same,metabolic stimulation relative to L-thyroxine,[5]; in vivo,less metabolic stimulation than L-thyroxine
same,arrhythmias,[6]; heart failure patients,No arrhythmias were noted
same,clinical manifestations of hyperthyroidism,[6]; heart failure patients,not observed
same,frequency or severity of anginal attacks,[6]; heart failure patients,no increase in frequency or severity of anginal attacks
same,Weight,"[6]; heart failure patients n=9, after 4 weeks (last 2 weeks 3.75 mg/kg daily)",94.7 ± 18.8 kg
same,Weight,"[6]; heart failure patients n=9, oral, after 2 weeks (1.875 mg/kg daily)",98.2 ± 19.3 kg
same,decrease in body weight,"[6]; heart failure patients, DITPA group, after 4 weeks, P=0.059 vs placebo",4 kg
same,NY Heart Association functional class,[6]; [11],2.4 ± 0.2
same,Diastolic Blood Pressure,[6]; [11],65.7 ± 3.3 mm Hg
same,Heart Rate,[6]; [11],83.4 ± 6.5 beats/min
same,Systolic Blood Pressure,[6]; [11],116.2 ± 7.4 mm Hg
same,NY Heart Association functional class,[6]; [12],2.5 ± 0.2
same,Radionuclide Ejection Fraction,"[6]; heart failure patients, after 4 weeks (3.75 mg/kg daily), baseline 18.1 ± 2.4",20.6 ± 3.2%
same,Diastolic Blood Pressure,[6]; [12],66.4 ± 3.6 mm Hg
same,Heart Rate,[6]; [12],82.2 ± 4.7 beats/min
same,Systolic Blood Pressure,[6]; [12],119.1 ± 6.1 mm Hg
same,tolerability,[6]; patients with ischemic heart disease / heart failure,well tolerated
same,echocardiographic parameters,[7]; normal volunteers,not changed significantly
same,Weight,[7]; after 2 weeks (1.875 mg/kg/day),83.5 ± 2.6 kg
same,Weight,[7]; after 4 weeks (last 2 weeks 3.75 mg/kg/day),83.6 ± 2.6 kg
same,adverse effects,"[7]; normal volunteers, 1.875 then 3.75 mg/kg, four weeks",no adverse effects were noted
same,Heart Rate,[7]; [13],58.1 ± 3.2 beats/min
same,Diastolic Blood Pressure,[7]; [13],76.1 ± 2.9 mm Hg
same,Systolic Blood Pressure,[7]; [13],122.0 ± 5.4 mm Hg
same,Heart Rate,[7]; [14],64.3 ± 3.4 beats/min
same,Diastolic Blood Pressure,[7]; [14],71.6 ± 3.8 mm Hg
same,Systolic Blood Pressure,[7]; [14],116.3 ± 6.1 mm Hg
same,changes in blood pressure and pulse rate,"[7]; normal volunteers, at either dose",no significant changes
same,tolerability,"[7]; normal volunteers, both doses",well tolerated
same,calcium transport in the sarcoplasmic reticulum (SR),[8]; post-infarction heart failure in rabbits,enhances calcium transport in the sarcoplasmic reticulum (SR)
same,contraction-frequency relationship,[8]; single myocytes from infarcted rabbit hearts,prevents the flattened contraction-frequency relationship
